The results in this text go back to patent US20240043435A1, “TYK-2 INHIBITOR” (BEIGENE, LTD., priority 2020, published 2024).

For this test, the target named is T1, TYK2-JH2 (aa 575-869, in-house) protein (Homo sapiens, UniProt P29597).
T1 construct: TYK2-JH2 (aa 575-869, in-house) protein; made in house
The test can be described thus: TYK2-JH2 biochemical assay (HTRF probe displacement). The format is binding. To be noted: for IC50: Biochemical assay, read-out: TYK2-JH2 IC50. Here is the method: Assay A: TYK2-JH2 Biochemical Assay
Compounds disclosed herein were tested for blocking of TYK2-JH2 (aa 575-869, in-house) protein with its probe in an assay based on Homogeneous Time Resolved Fluorescence. Compound dilution is done according to the following protocol: (1) Prepare 500× compounds solution in DMSO from 500 uM by 5-fold dilution, total 10 doses were included; (2) Prepare 10× compounds solution in an assay buffer containing 20 mM HEPES, pH 7.5, 10 mM MgCl2, 0.005% BSA, 2 mM DTT, 0.015% Brij-35 by transferring 1 μl serial 500× stock solution into 49 μl assay buffer. […] of 0.2 nM recombinant TYK2-JH2 protein was pre-incubated with 1 μl of 10× serial dilution of compounds at room temperature for 0.5 hour. […] The HTRF signals (ex337 nm, em620 nm/665 nm) were read on BMG PHERAstar FS instrument. The inhibition percentage of TYK2 interaction with its probe in presence of increasing concentrations of compounds was calculated based on the ratio of fluorescence at 615 nm to that at 665 nm. The IC50 for each compound was derived from fitting the data to the four-parameter logistic equation by Dotmatics.
(In TR-FRET formats the signal depends on donor and acceptor labels being close together.)

Molecules are shown by their SMILES.

As usually defined, the IC50 is the point on the concentration scale where inhibition reaches its midpoint. Usually Kd stands for the equilibrium constant for the complex coming apart.

T1 sequence (P29597 575-869): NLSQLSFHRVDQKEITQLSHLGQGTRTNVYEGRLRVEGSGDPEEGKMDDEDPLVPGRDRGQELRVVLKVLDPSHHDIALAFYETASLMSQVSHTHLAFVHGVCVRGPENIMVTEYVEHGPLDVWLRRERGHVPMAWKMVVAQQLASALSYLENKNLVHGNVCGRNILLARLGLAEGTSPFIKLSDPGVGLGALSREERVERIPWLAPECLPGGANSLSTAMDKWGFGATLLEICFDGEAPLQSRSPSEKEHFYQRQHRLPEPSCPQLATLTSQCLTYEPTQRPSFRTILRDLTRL

`CC(=O)Nc1cc(Nc2cc(C(C)(C)O)cc(S(C)(=O)=O)n2)c(-c2ccc3c(n2)OC(C)(C)CO3)cn1` [Example Q29, N-(5-(3,3-dimethyl-2,3-dihydro-[1,4]dioxino[2,3-b]yridine-6-yl)-4-((4-(2-hydroxypropan-2-yl)-6-(methylsulfonyl)pyridine-2-yl)amino)pyridine-2-yl)acetamide]: the IC50 came to 0.037 nM.

Consider `CC(=O)Nc1cc(Nc2cc(N3CCCC3)cc(S(C)(=O)=O)n2)c(-c2ccc3c(n2)OCC(C)(C)O3)cn1` [Example Q104, N-(5-(2,2-dimethyl-2,3-dihydro-[1,4]dioxino[2,3-b]pyridin-6-yl)-4-((6-(methylsulfonyl)-4-(pyrrolidin-1-yl)pyridin-2-yl)amino)pyridin-2-yl)acetamide], for which the IC50 turned out to be 0.029 nM.

On to `COC(C)c1cc(Nc2cc(NC(C)=O)ncc2-c2ccc(N3C[C@@H](C)O[C@@H](C)C3)cn2)nc(S(C)(=O)=O)c1` (single isomer, unassigned) [Example C20, N-(5-((cis)-2,6-dimethylmorpholino)-4′-((4-((R or S)-1-methoxyethyl)-6-(methylsulfonyl)pyridin-2-yl)amino)-[2,3′-bipyridin]-6′-yl)acetamide], for which the IC50 worked out at 0.023 nM.

For the compound `CC(=O)Nc1cc(Nc2cc(-c3c(C)noc3C)cc(S(C)(=O)=O)n2)c(-c2ccc3c(n2)OCC(C)(C)O3)cn1` [Example Q99, N-(5-(2,2-dimethyl-2,3-dihydro-[1,4]dioxino[2,3-b]pyridin-6-yl)-4-((4-(3,5-dimethylisoxazol-4-yl)-6-(methylsulfonyl)pyridin-2-yl)amino)pyridin-2-yl)acetamide], the IC50 amounted to 0.033 nM. As to `COCCOc1cc(Nc2cc(NC(C)=O)ncc2-c2ccc(C(F)(F)F)cn2)cc(S(C)(=O)=O)c1` [Example F8, N-(4′-((3-(2-methoxyethoxy)-5-(methylsulfonyl)phenyl)amino)-5-(trifluoromethyl)-[2,3′-bipyridin]-6′-yl)acetamide], the IC50 worked out at 0.087 nM. The same measure, in the same setting: to `CC(=O)Nc1cc(Nc2cc(C(F)(F)F)cc(S(C)(=O)=O)c2)c(-c2ccn(C)n2)cn1` [Example J33, N-(5-(1-methyl-1H-pyrazol-3-yl)-4-((3-(methylsulfonyl)-5-(trifluoromethyl)phenyl)amino)pyridin-2-yl)acetamide] belongs 0.12 nM. `CC(=O)Nc1cc(Nc2cc(C#N)cc(S(C)(=O)=O)c2)c(-c2ccc(C(F)(F)F)cn2)cn1` [Example F4, N-(4′-((3-cyano-5-(methylsulfonyl)phenyl)amino)-5-(trifluoromethyl)-[2,3′-bipyridin]-6′-yl)acetamide]: the IC50 is 0.324 nM. Still for that read-out and setting: next, `CC(=O)Nc1cc(Nc2cc(N3CC[C@H](OCCO)C3)cc(S(C)(=O)=O)n2)c(-c2ccc3c(n2)OCC(C)(C)O3)cn1` [Example Q61, (S)-N-(5-(2,2-dimethyl-2,3-dihydro-[1,4]dioxino[2,3-b]pyridin-6-yl)-4-((4-(3-(2-hydroxyethoxy)pyrrolidin-1-yl)-6-(methylsulfonyl)pyridin-2-yl)amino)pyridin-2-yl)acetamide]: 0.022 nM; `COc1cc(Nc2cc(NC(C)=O)ncc2-c2ccc(C(C)(C)O)cn2)cc(S(C)(=O)=O)c1` [Example H4, N-(5-(2-hydroxypropan-2-yl)-4′-((3-methoxy-5-(methylsulfonyl)phenyl)amino)-[2,3′-bipyridin]-6′-yl)acetamide]: 0.047 nM.

Take `CC(=O)Nc1cc(Nc2cc(OC(C)C)cc(S(C)(=O)=O)n2)c(-n2ccnc2)cn1` [Example A18, N-(5-(1H-imidazol-1-yl)-4-((4-isopropoxy-6-(methylsulfonyl)pyridin-2-yl)amino)pyridin-2-yl)acetamide]: the IC50 is 8.15 nM. With `CC(=O)Nc1cc(Nc2cc(OC(C)C)cc(S(C)(=O)=O)n2)c(-c2ccc(F)cn2)cn1` [Example F18, N-(5-fluoro-4′-((4-isopropoxy-6-(methylsulfonyl)pyridin-2-yl)amino)-[2,3′-bipyridin]-6′-yl)acetamide], the IC50 is 0.052 nM.

On to `CC(=O)Nc1cc(Nc2cc(N3CCC(C)(O)C3)cc(S(C)(=O)=O)n2)c(-c2ccc3c(n2)OCC(C)(C)O3)cn1` (stereo not shown) [Example Q57, N-(5-(2,2-dimethyl-2,3-dihydro-[1,4]dioxino[2,3-b]pyridin-6-yl)-4-((4-(3-hydroxy-3-methylpyrrolidin-1-yl)-6-(methylsulfonyl)pyridin-2-yl)amino)pyridin-2-yl) acetamide], for which the IC50 turned out to be 0.031 nM. With `CC(=O)Nc1cc(Nc2cc(C)c(F)c(S(C)(=O)=O)n2)c(-c2ccc3c(n2)OC(C)(C)CO3)cn1` [Example Q30, N-(5-(3,3-dimethyl-2,3-dihydro-[1,4]dioxino[2,3-b]pyridine-6-yl)-4-((5-fluoro-4-methyl-6-(methylsulfonyl)pyridine-2-yl)amino)pyridine-2-yl)acetamide], the IC50 turned out to be 0.065 nM. The same measure, in the same setting: to `CC(=O)Nc1cc(Nc2cc(OC(C)C)cc(S(C)(=O)=O)c2)c(-c2ccc(F)cn2)cn1` [Example F14, N-(5-fluoro-4′-((3-isopropoxy-5-(methylsulfonyl)phenyl)amino)-[2,3′-bipyridin]-6′-yl)acetamide] belongs 0.13 nM. The same measure, in the same setting: to `CC(=O)Nc1cc(Nc2cc(OCCO)cc(S(C)(=O)=O)c2)c(-c2ccc(C(F)(F)F)cn2)cn1` [Example F7, N-(4′-((3-(2-hydroxyethoxy)-5-(methylsulfonyl)phenyl)amino)-5-(trifluoromethyl)-[2,3′-bipyridin]-6′-yl)acetamide] belongs 0.085 nM; to `CC(=O)Nc1cc(Nc2cc(OC(C)C)cc(S(C)(=O)=O)n2)c(-c2ccc3nccn3n2)cn1` [Example Q5, N-(5-(imidazo[1,2-b]pyridazin-6-yl)-4-((4-isopropoxy-6-(methylsulfonyl)pyridin-2-yl)amino)pyridin-2-yl)acetamide], 0.065 nM.

As for `CC(=O)Nc1cc(Nc2cc(N3CC4CC4C3)cc(S(C)(=O)=O)n2)c(-c2ccc3c(n2)OCC(C)(C)O3)cn1` (stereo not shown) [Example Q106, N-(4-((4-(3-azabicyclo[3.1.0]hexan-3-yl)-6-(methylsulfonyl)pyridin-2-yl)amino)-5-(2,2-dimethyl-2,3-dihydro-[1,4]dioxino[2,3-b]pyridin-6-yl)pyridin-2-yl)acetamide], the half-maximal inhibitory concentration (IC50) was 0.015 nM. Turning to `CC(=O)Nc1cc(Nc2cc(C)cc(S(C)(=O)=O)n2)c(-c2cc(C(C)(C)O)ccn2)cn1` [Example B10, N-(4-(2-hydroxypropan-2-yl)-4′-((4-methyl-6-(methylsulfonyl)pyridin-2-yl)amino)-[2,3′-bipyridin]-6′-yl)acetamide], the IC50 came to 0.045 nM. As for `CC(=O)Nc1cc(Nc2cc(C(F)(F)F)cc(S(C)(=O)=O)c2)c(-c2ccc(F)cn2)cn1` [Example F13, N-(5-fluoro-4′-((3-(methylsulfonyl)-5-(trifluoromethyl)phenyl)amino)-[2,3′-bipyridin]-6′-yl)acetamide], the IC50 came out at 0.21 nM. Turning to `CC(=O)Nc1cc(Nc2cc(C(F)(F)F)cc(S(C)(=O)=O)c2)c(-c2ccn([C@@H]3CCOC3)n2)cn1` [Example M32, (R)-N-(4-((3-(methylsulfonyl)-5-(trifluoromethyl)phenyl)amino)-5-(1-(tetrahydrofuran-3-yl)-1H-pyrazol-3-yl)pyridin-2-yl)acetamide], the IC50 is 0.074 nM. The same measure, in the same setting: to `CC(=O)Nc1cc(Nc2cc(C3CCOCC3)cc(S(C)(=O)=O)n2)c(-c2ccc3c(n2)OCC(C)(C)O3)nn1` [Example Q58, N-(6-(2,2-dimethyl-2,3-dihydro-[1,4]dioxino[2,3-b]pyridin-6-yl)-5-((6-(methylsulfonyl)-4-(tetrahydro-2H-pyran-4-yl)pyridin-2-yl)amino)pyridazin-3-yl)acetamide] belongs 0.097 nM. Regarding `CC(=O)Nc1cc(Nc2cc(C3CCOC3)cc(S(C)(=O)=O)n2)c(-c2ccc3c(n2)OCC(C)(C)O3)cn1` (stereo not shown) [Example Q86, N-(5-(2,2-dimethyl-2,3-dihydro-[1,4]dioxino[2,3-b]pyridin-6-yl)-4-((6-(methylsulfonyl)-4-(tetrahydrofuran-3-yl)pyridin-2-yl)amino)pyridin-2-yl)acetamde], the IC50 was determined as 0.031 nM.

Consider `COCCOc1cc(Nc2cc(NC(C)=O)ncc2-c2ccc(F)cn2)nc(S(C)(=O)=O)c1` [Example F16, N-(5-fluoro-4′-((4-(2-methoxyethoxy)-6-(methylsulfonyl)pyridin-2-yl)amino)-[2,3′-bipyridin]-6′-yl)acetamide], for which the IC50 came out at 0.027 nM.

For `Cc1cc(C)cc(Nc2cc(NCCNC(=O)CCOCCOCCOCCOCCOCCOCCNC(=O)CCCC[C@@H]3SC[C@@H]4NC(=O)N[C@@H]43)c3ncc(C(N)=O)n3n2)c1` [Probe 1, 6-((3,5-dimethylphenyl)amino)-8-((4,26-dioxo-30-((3aS,4S,6aR)-2-oxohexahydro-1H-thieno[3,4-d]imidazol-4-yl)-7,10,13,16,19,22-hexaoxa-3,25-diazatriacontyl)amino)imidazo[1,2-b]pyridazine-3-carboxamide, reference compound], binding (in-house probe of the TYK2-JH2 assay) was characterised by a dissociation constant (Kd) of 10 nM. As to `CC(=O)Nc1cc(Nc2cc(N3CCC(C)(O)CC3)cc(S(C)(=O)=O)n2)c(-c2ccc3c(n2)OCC(C)(C)O3)cn1` [Example Q55, N-(5-(2,2-dimethyl-2,3-dihydro-[1,4]dioxino[2,3-b]pyridin-6-yl)-4-((4-(4-hydroxy-4-methylpiperidin-1-yl)-6-(methylsulfonyl)pyridin-2-yl)amino)pyridin-2-yl)acetamide], the IC50 was 0.019 nM.
